Measured values: US20160002643A1, “Compositions And Methods To Enhance Protein Expression” (priority 2014, published 2016)
“Also recorded” adds a separate entry of the source.

Key:
[1] = tested on: induction of co-transfected genes by pLKO.1c; experiment: Drug inhibition experiments on pLKO.1c induction of co-transfected genes; type: cell-based; conditions: p38 inhibitor 10 μM 24 hr; Mnk1 inhibitor 2 nM 40 hr
Protocol: The Mnk1 inhibitor (Calbiochem) was added at 2 nM for 40 hr, and the p38 inhibitor (SB203580) was added at 10 μM for 24 hr prior to harvesting transfections.

[2] = tested on: EGFP, ER-mCherry or mCherry expression in 293 cells; experiment: FACS / fluorescence analysis of co-transfected EGFP and mCherry expression; type: cell-based, human; conditions: 2.5 ng EGFP expression plasmid
Protocol: The average mean fluorescence and range of duplicate transfections of 5 μg of pLKO.1c or pLKΔHP plasmids into 293 cells was determined in the presence or absence of the indicated amount of pEGFP vector relative to the pcDNA control. […]
Calcium phosphate transfection of 293 cells was performed in triplicate with 5 μg of the pTRE plasmids and 1 μg of the transactivator as indicated. All cells were incubated with 300 ng/ml DOX at 7 hr post-transfection prior to FACS analysis at 48 hr. The mean and standard deviations of triplicates are reported relative to pTRE3G-BI-mCherry in the absence of transactivator. All values (lanes 2, 3, and 4) were highly statistically significant (p<0.0001) relative to values from lane 1 as was lane 3 relative to 4.
Transfections were performed as in panel B except that samples without the pTRE plasmids were included (pcDNA3). All transfections contained 2.5 ng of the EGFP expression plasmid. Without the transactivator, pTRE-Psi-sh elevated GFP expression ˜10-fold compared to pcDNA3 (p<0.0001; lanes 5 and 1) and ˜6-fold compared to pTRE-3G-BI-mCherry (p<0.0001; lanes 5 and 3). […]

Row | Compound | effect of inhibitor on induction of co-transfected genes by pLKO.1c [1] | super-induction of co-transfected GFP/EGFP (in words) [2]
1 | Nc1ncnc2n[nH]c(Nc3ccc(F)cc3)c12 [CGP57380] | no observable effect | –
2 | C[S+]([O-])c1ccc(-c2nc(-c3ccncc3)c(-c3ccc(F)cc3)[nH]2)cc1 (stereo not drawn) [SB203580] | no effect | –
3 | pMT2: adenoviral gene containing plasmid on a pBR322 backbone expressing Ad VA-RNA I, SEQ ID NO:07 | – | showed super-induction of GFP; also recorded: comparable to super-induction of GFP by pLKO.1e
